Experimental data: US20250051321A1, “TRICYCLIC DERIVATIVE AND PREPARATION METHOD THEREFOR AND APPLICATION THEREOF” (SHANGHAI JEMINCARE PHARMACEUTICAL CO., LTD., priority 2021, published 2025)
Where two headings read alike, the source gives them in different places.

Experiments:
[1] = tested on: plasma LPA 18:1 and LPA 18:2; test: Human plasma ex vivo assay (LPA 18:1 / 18:2 by LC-MS/MS); assay type: biochemical; conditions: 37° C., 2 hours
How it was run: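 Human plasma incubated 2 h at 37° C with compound (8 points, 1:3 dilution, top 10 μM, 0.1% DMSO), then quenched with 0.1% FA containing LPA 17:0 internal standard.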

[2] = Pharmacokinetic test in mice; assay type: in vivo, ICR mice; conditions: for AUC / C0 / half-life / clearance / Cmax / Tmax / bioavailability: male, ICR, mouse, plasma; for clearance: read-out: CL (mL/min/kg, IV)
Method: Dosage preparation: The dosing solution was prepared on the day of dosing. 2 mg of compound was weighed and dissolved in 5% DMSO+10% solutol+85% saline to prepare a solution for intravenous administration at a concentration of 0.2 mg/mL. 2 mg of compound was weighed and dissolved in 25% PEG 200+75% (0.5% MC) to obtain a solution for oral administration at a concentration of 1 mg/mL.
Six healthy male naïve ICR mice, weighing 25 to 30 g, were divided into two groups (intravenous and oral groups) with three in each group, and administered in a single dose. After 3 days of acclimatization, the mice were fasted overnight (10 to 12 hours) the night before the experiment, but had free access to water during the experiment, and the diet was resumed 4 hours after administration. After intravenous and oral administration, the timer was started. Blood was collected via the orbital venous plexus at the scheduled time points (IV&PO: 0.083, 0.25, 0.5, 1, 2, 4, 6, 8, and 24 hours). 40 μL of whole blood was collected at each point and added to a 1.5 mL EP tube containing sodium heparin. The collected whole blood was vibrated twice on a vortex mixer, mixed well, placed on wet ice, and centrifuged at 8000 rpm for 5 minutes at 4° C. within 1 hour. The supernatant plasma was stored in a −80° C. freezer until processing for analysis.

[3] = target: ATX (Homo sapiens (Human), UniProt Q13822); test: ATX enzyme inhibition assay (Amplex UltraRed/choline oxidase/HRP, 16:0 Lyso PC substrate); assay type: biochemical
How it was run: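 ATX (2× stock […]) preincubated with compound for 10 min at room temperature in assay buffer at pH 8.5 or 7.5. Reaction started with 16:0 Lyso PC, choline oxidase, HRP and Amplex UltraRed (2.5× working stock); fluorescence read kinetically (ex 550/em 590 nm) for 60 min.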

[4] = LPA 18:1, read-out: Human plasma ex vivo assay IC50 (18:1 LPA)
[5] = LPA 18:2, read-out: Human plasma ex vivo assay IC50 (18:2 LPA)
[6] = assay buffer pH 8.5, read-out: IC50 (nM) pH 8.5
[7] = 5 mg/kg, PO - 5 mpk vs IV - 1 mpk
[8] = assay buffer pH 7.5, read-out: IC50 (nM) pH 7.5

Row | SMILES | IC50 [1, 4] | IC50 [1, 5] | AUCi ([2]; IV - 1 mpk) | C0 (IV) ([2]; IV - 1 mpk) | CL (mL/min/kg, IV) ([2]; IV - 1 mpk) | T1/2 ([2]; IV - 1 mpk) | IC50 [3, 6] | AUC ([2]; 1 mg/kg, IV - 1 mpk) | C0 ([2]; 1 mg/kg, IV - 1 mpk) | half-life ([2]; 1 mg/kg, IV - 1 mpk) | clearance ([2]; 1 mg/kg, IV - 1 mpk) | AUC ([2]; 5 mg/kg, PO - 5 mpk) | Cmax ([2]; 5 mg/kg, PO - 5 mpk) | Tmax ([2]; 5 mg/kg, PO - 5 mpk) | half-life ([2]; 5 mg/kg, PO - 5 mpk) | bioavailability [2, 7] | IC50 [3, 8] | also measured
1 | CN(c1nc(-c2ccc(F)cc2)c(C#N)s1)c1c2c(nc3c(F)cc(N4CC5(CN(C(=O)[C@H]6CCOC6)C5)C4)cc13)[C@H](O)CC2 (single isomer, unassigned) [Example E5-a] | 0.294 µM | 0.305 µM | 1986 ng·h/mL | 1882 ng/mL | 8.54 mL/min/kg | 0.95 h | 22.7 nM | – | – | – | – | – | – | – | – | – | – | AUCi ([2]; PO - 10 mpk): 44380 ng·h/mL; Cmax (PO) ([2]; PO - 10 mpk): 7763 ng/mL; T1/2 ([2]; PO - 10 mpk): 2.34 h; Tmax (hr, PO) ([2]; PO - 10 mpk): 0.5 h; Bioavailability (%) ([2]; PO - 10 mpk vs IV - 1 mpk): 223%
2 | CN(c1nc(-c2ccc(F)cc2)c(C#N)s1)c1c2c(nc3c(F)cc(N4CC5(CN(C(=O)C(C)(C)O)C5)C4)cc13)[C@@H](O)CC2 (single isomer, unassigned) [Example E16-a] | 0.381 µM | 0.383 µM | – | – | – | – | 20.1 nM | 5540 ng·h/mL | 3550 ng/mL | 1.87 h | 3.07 mL/min/kg | 17000 ng·h/mL | 3010 ng/mL | 0.33 h | 2.22 h | 61.3% | – | –
3 | CN(c1nc(-c2ccc(F)cc2)c(C#N)s1)c1c2c(nc3c(F)cc(N4CC5(CN(C(=O)[C@H]6CCOC6)C5)C4)cc13)CCC2 [Example C1] | 0.521 µM | 0.438 µM | 5701 ng·h/mL | 3141 ng/mL | 2.92 mL/min/kg | 2.15 h | 36.3 nM | – | – | – | – | – | – | – | – | – | 63.5 nM | AUCi ([2]; PO - 5 mpk): 7392 ng·h/mL; Cmax (PO) ([2]; PO - 5 mpk): 1903 ng/mL; T1/2 ([2]; PO - 5 mpk): 2.08 h; Tmax (hr, PO) ([2]; PO - 5 mpk): 1.0 h; Bioavailability (%) ([2]; PO - 5 mpk vs IV - 1 mpk): 26%
4 | CN(c1nc(-c2ccc(F)cc2)c(C#N)s1)c1c2c(nc3c(F)cc(N4CC5(CN(C(=O)[C@@H]6CCOC6)C5)C4)cc13)CC2 [Example C8] | 0.169 µM | 0.191 µM | – | – | – | – | 27.5 nM | 2080 ng·h/mL | 1800 ng/mL | 1.23 h | 8 mL/min/kg | 7940 ng·h/mL | 2920 ng/mL | 0.25 h | 2.4 h | 76.2% | 67.3 nM | –
5 | CN(c1nc(-c2ccc(F)cc2)c(C#N)s1)c1c2c(nc3ncc(N4CC5(CN(C(=O)[C@@H]6CCOC6)C5)C4)cc13)CC2 [Example C17] | 0.318 µM | 0.319 µM | – | – | – | – | 25.9 nM | – | – | – | – | 16900 ng·h/mL | 4280 ng/mL | 0.5 h | 2.13 h | – | – | –
6 | CN(c1nc(-c2ccc(F)cc2)c(C#N)s1)c1c2c(nc3c(F)cc(N4CC5(CN(C(=O)[C@H]6CCOC6)C5)C4)cc13)COC2 [Example C18] | – | – | – | – | – | – | 15.2 nM | 3700 ng·h/mL | 1940 ng/mL | 1.82 h | 4.59 mL/min/kg | 11000 ng·h/mL | 3330 ng/mL | 0.58 h | 2.79 h | 59.7% | – | –
